Values belong to the molecule of their own block, whether it stands above or below them. Where a SMILES comes first, the peptide text is derived from it. Bridges are numbered along the chain shown (N, C = ends). [ ]: non-standard residue; d: D form. The star is where a group is joined. DOTA = O=C(O)CN1CCN(CC(=O)O)CCN(CC(=O)*)CCN(CC(=O)O)CC1; 2Nal = N[C@@H](Cc1ccc2ccccc2c1)C(=O)O; aIle = CC[C@@H](C)[C@H](N)C(=O)O; Chg = N[C@H](C(=O)O)C1CCCCC1; Tle = CC(C)(C)[C@H](N)C(=O)O
Legend:
[1] = biological target: T1, DLL3 (Homo sapiens, UniProt Q9NYJ7); experiment: SPR KD, biotinylated human DLL3 on streptavidin chip (Table 8); set-up: biotin (biotinylated); settings: biotinylated human DLL3 on streptavidin sensor chip, 25° C., 1:1 binding model; read-out: SPR KD
T1 sequence (Q9NYJ7 27-618): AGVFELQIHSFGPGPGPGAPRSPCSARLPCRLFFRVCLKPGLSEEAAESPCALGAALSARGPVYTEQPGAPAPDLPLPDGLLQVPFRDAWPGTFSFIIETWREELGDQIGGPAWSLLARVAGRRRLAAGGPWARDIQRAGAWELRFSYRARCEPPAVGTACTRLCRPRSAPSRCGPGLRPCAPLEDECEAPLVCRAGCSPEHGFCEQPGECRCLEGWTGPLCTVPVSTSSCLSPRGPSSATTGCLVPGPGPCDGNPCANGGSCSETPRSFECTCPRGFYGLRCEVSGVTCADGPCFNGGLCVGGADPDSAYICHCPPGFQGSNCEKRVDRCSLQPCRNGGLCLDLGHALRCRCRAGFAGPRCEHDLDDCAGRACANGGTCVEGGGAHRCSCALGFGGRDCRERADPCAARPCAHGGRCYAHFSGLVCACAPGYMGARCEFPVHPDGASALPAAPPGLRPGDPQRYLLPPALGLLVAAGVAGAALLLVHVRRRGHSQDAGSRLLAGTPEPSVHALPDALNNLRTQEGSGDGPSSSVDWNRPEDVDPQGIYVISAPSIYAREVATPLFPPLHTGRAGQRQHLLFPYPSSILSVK
Description: Biotinylated target ligand human DLL3 was immobilized on a streptavidin sensor chip. A reference surface was set up for nonspecific binding and refractive index changes. […] Sensorgram curves were fitted with 1:1 binding model, and affinity and kinetic parameters were obtained using Biacore Insight evaluation 4.0. software.

[2] = tested on: SHP-77 cells; experiment: Internalization of [177Lu]Lu-labeled peptide, SHP-77 cells; format: cell-based; settings: 1 h, 37° C.
Method: (§1) [^177Lu]LuCl3 was received from venders in HCl solution. For every mCi of [^177Lu]LuCl3 added to the reaction vial (1.5 mL Eppendorf vial), ammonium acetate buffer (0.2 M, pH 4.9, 100 μL, containing 1% w/v ascorbic acid and 6% v/v ethanol) and peptide conjugate (1 nmol; also referred to herein as “chelator-peptides”) was added. The pH of the solution was determined to be approximately 5 by using pH strips. The reaction vial was incubated at 80° C., 700 RPM for 17-20 minutes. A sample from the reaction was analyzed by RP-HPLC using an Agilent Infinity II 1260 HPLC to determine reaction completion and radiochemical purity of [^177Lu]Lu-chelator-peptides. HPLC conditions: Waters XBridge BEH C18 Column, 130A, 3.5 μm, 4.6 mm×250 mm; mobile phase: Solvent A=water (with 0.1% formic acid), solvent B=acetonitrile (with 0.1% formic acid). Gradients: 25-45% B in 10 minutes, 45-65% B in 12 minutes, 65-90% in 6 minutes at a flow rate of 0.5 mL/minutes Required amounts of the product was formulated in 1% PBSA for cell studies.
(§2) The study was conducted using SHP-77, CT26.WT, CT26.DLL3, and HEK293.DLL3 cells (Table 9)
(§3) Adherent cell studies: The cells were cultured in appropriate culture media (20 mL) in tissue culture treated T150 flasks at 37° C. and 5% C02. Adherent cells were detached (60-70% confluent) using 5 mL Versene at 37° C. for 3 minutes. After confirming the viability using countess and count of detached cells using Trypan blue, the cells were centrifuged at 4° C. for 5 minutes (1,000 rpm). The cell pellet obtained was washed once with PBS and resuspended in 1% PBSA to obtain the desired cell concentration (5-25 million cells/mL).
as §3, with “Suspension” for “Adherent”, “CO2.” for “C02. Adherent cells were detached (60-70% confluent) using 5 mL Versene at 37° C. for 3 minutes.”, “viability” for “viability using countess”
(§4) Cell numbers used for the assay were in the range of 5 million cells/condition-25 million cells/condition.
(§5) Internalization: The resuspended cells in 300 μL of 1% PBSA and counted in the gamma counter as “bound fraction” were collected in 1.5 mL Eppendorf tube and pelleted. The pelleted cells were incubated with 300 μL of 50 mM Glycine pH=2.5 for 3 minutes and then pelleted discarding the supernatant. This process was repeated one more time. The pelleted cells were washed with 300 μL of cold 1% PBSA and then resuspended in 300 μl 0.3M NaOH. This was counted in the gamma counter as “internalized fraction”.
(§6) In these Tables, “A” represents % s ≤25; “B” represents 25 <% ≤50; “C” represents % >50.

[3] = tested on: SHP-77 cells; experiment: Cell binding (total uptake) of [177Lu]Lu-labeled peptide, SHP-77 cells; format: cell-based; settings: 1 h, 37° C.
Method: as §1, §2, §3
as §3, with “Suspension” for “Adherent”, “CO2.” for “C02. Adherent cells were detached (60-70% confluent) using 5 mL Versene at 37° C. for 3 minutes.”, “viability” for “viability using countess”
as §4
(§7) Total uptake: Cells were incubated with 300 μL (0.8 μCi) of the incubation buffer (containing radiolabeled peptide [^177Lu]Lu-test peptide) for 1 hour at 37° C. (Table 10). Post incubation, the cells were pelleted and washed 2 times using cold PBS+1% BSA. The supernatant and washes were combined and counted together as “unbound fraction” in a gamma counter. The cells were then resuspended in 300 μL of 1% PBS+1% BSA and counted in the gamma counter as “bound fraction”.
as §6

[4] = tested on: CT26.DLL3 cells; experiment: Cell binding (total uptake) of [177Lu]Lu-labeled peptide, CT26.DLL3 cells; format: cell-based; settings: 1 h, 37° C.
Method: as §1, §2, §3, §4, §7, §6

[5] = tested on: nude mice bearing SHP-77 tumors; experiment: Ex vivo biodistribution of radiolabeled peptides (% IA/g) in nude mice bearing SHP-77 tumors; settings: [177Lu]Lu labelling, 24 hours post-injection, intravenous
Procedure, shortened: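 [177Lu]Lu-peptides were given as an IV tail-vein bolus once tumors reached 200-400 mm^3. Injected activity was set per mouse from syringe dose-calibrator readings. At set time points, tissues were weighed and gamma-counted, and counts were decay-corrected to injection and expressed as % IA/g.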

[6] = tested on: CT26.DLL3 cells; experiment: Internalization of [177Lu]Lu-labeled peptide, CT26.DLL3 cells; format: cell-based; settings: 1 h, 37° C.
Method: as §1, §2, §3, §4, §5, §6

[7] = biological target: T2, DLL3 on CT26.DLL3 cells (Homo sapiens (Human), UniProt Q9NYJ7 27-618); experiment: [177Lu]Lu-labelled peptide on CT26.DLL3 cells, 1 h 37 C, gamma counter; A = %<=25
T2 construct: CT26.DLL3 are engineered cells to express DLL3
T2 sequence: T1 sequence (Q9NYJ7 27-618)
Method: as §3
Total uptake: Cells were incubated with 300 μL (0.8 μCi) of the incubation buffer (containing radiolabeled peptide [¹⁷⁷Lu]Lu-test peptide) for 1 hour at 37° C. (Table 10). Post incubation, the cells were pelleted and washed 2 times using cold PBS+1% BSA. The supernatant and washes were combined and counted together as “unbound fraction” in a gamma counter. The cells were then resuspended in 300 μL of 1% PBS+1% BSA and counted in the gamma counter as “bound fraction”.

Kd [1]: < 1 nM
kidney uptake (% IA/g) [5]: D (“D” represents % IA/g > 10 in kidney)
Molecule: CC(=O)N[C@@H](Cc1c[nH]c2ccccc12)C(=O)N[C@H](C(=O)N[C@H](C(=O)N[C@H]1CSSC[C@@H](C(=O)N[C@@H](Cc2c[nH]c3ccccc23)C(=O)N2CCC[C@H]2C(N)=O)NC(=O)[C@H](CC(=O)O)NC(=O)[C@H](CCCCNC(=O)CN2CCN(CC(=O)O)CCN(CC(=O)O)CCN(CC(=O)O)CC2)NC(=O)[C@H](Cc2ccc3ccccc3c2)NC(=O)[C@H](CC(N)=O)NC(=O)[C@H](CC(N)=O)NC1=O)C1CCCCC1)[C@@H](C)O [compound 318, Ac-W-T-(Chg)-C(3)-N-N-(2Nal)-Lys(DOTA)-D-C(3)-W-P-CONH2] (Ac-WT[Chg]CNN[2Nal]K(DOTA)DCWP-NH2; disulfide 4-10)
% Internalization (out of bound fraction) [2]: C (% >50)
% Binding [3]: B (25 <% ≤50)
% Binding [4]: A (% s ≤25)
tumor uptake (% IA/g) [5]: A (“A” represents 0 < % IA/g ≤ 5 in tumor)
% Internalization (out of bound fraction) [6]: C (% >50)

Kd [1]: < 1 nM
kidney uptake (% IA/g) [5]: D (“D” represents % IA/g > 10 in kidney)
Molecule: CC[C@@H](C)[C@H](NC(=O)[C@@H](NC(=O)[C@H](Cc1c[nH]c2ccccc12)NC(C)=O)[C@@H](C)O)C(=O)N[C@H]1CSSC[C@@H](C(=O)N[C@@H](Cc2c[nH]c3ccccc23)C(=O)N2CCC[C@H]2C(N)=O)NC(=O)[C@H](CC(=O)O)NC(=O)[C@H](CCCCNC(=O)CN2CCN(CC(=O)O)CCN(CC(=O)O)CCN(CC(=O)O)CC2)NC(=O)[C@H](Cc2ccc3ccccc3c2)NC(=O)[C@H](CC(N)=O)NC(=O)[C@H](CC(N)=O)NC1=O [compound 322, Ac-W-T-(Allo-Ile)-C(3)-N-N-(2Nal)-Lys(DOTA)-D-C(3)-W-P-CONH2] (Ac-WT[aIle]CNN[2Nal]K(DOTA)DCWP-NH2; disulfide 4-10)
% Internalization (out of bound fraction) [2]: B (25 <% ≤50)
% Binding [3]: A (% s ≤25)
% Binding [4]: A (% s ≤25)
tumor uptake (% IA/g) [5]: A (“A” represents 0 < % IA/g ≤ 5 in tumor)
% Internalization (out of bound fraction) [6]: C (% >50)

% Binding [7]: ≤ 25%
B1: Cpd No. 315 (peptide)
peptide: Ac-WT[Tle]CNN[2Nal]K(DOTA)DCWP-NH2
modifications: disulfide 4-10
SMILES: CC(=O)N[C@@H](Cc1c[nH]c2ccccc12)C(=O)N[C@H](C(=O)N[C@H](C(=O)N[C@H]1CSSC[C@@H](C(=O)N[C@@H](Cc2c[nH]c3ccccc23)C(=O)N2CCC[C@H]2C(N)=O)NC(=O)[C@H](CC(=O)O)NC(=O)[C@H](CCCCNC(=O)CN2CCN(CC(=O)O)CCN(CC(=O)O)CCN(CC(=O)O)CC2)NC(=O)[C@H](Cc2ccc3ccccc3c2)NC(=O)[C@H](CC(N)=O)NC(=O)[C@H](CC(N)=O)NC1=O)C(C)(C)C)[C@@H](C)O

— US20250049970A1, “DLL3 TARGETING PEPTIDES AND CONSTRUCTS THEREOF” (MARIANA ONCOLOGY INC., priority 2023, published 2025)
